The results in this text go back to ChEMBL document CHEMBL1201862, “PubChem BioAssay data set” (2004).

Assay [1] has as its target Heat shock protein HSP 90-alpha (Homo sapiens, UniProt P07900). It counts as functional, organism-based.
Assay [2] relates to Streptococcus. Kind of assay: GAS UMAA2166 growth inhibition – luminescence, BacTiterGlo, counter-screen for streptokinase expression inhibitor project, dose response (AID 1915).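 Note: potency for reduction of bacterial viability or growth.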 It counts as functional, organism-based. (A counterscreen serves to expose hits that act by an unwanted route or on another target.)
For assay [3], the target named is T1, Mannose-6-phosphate isomerase (Homo sapiens, UniProt P34949).
T1 sequence (P34949 whole entry): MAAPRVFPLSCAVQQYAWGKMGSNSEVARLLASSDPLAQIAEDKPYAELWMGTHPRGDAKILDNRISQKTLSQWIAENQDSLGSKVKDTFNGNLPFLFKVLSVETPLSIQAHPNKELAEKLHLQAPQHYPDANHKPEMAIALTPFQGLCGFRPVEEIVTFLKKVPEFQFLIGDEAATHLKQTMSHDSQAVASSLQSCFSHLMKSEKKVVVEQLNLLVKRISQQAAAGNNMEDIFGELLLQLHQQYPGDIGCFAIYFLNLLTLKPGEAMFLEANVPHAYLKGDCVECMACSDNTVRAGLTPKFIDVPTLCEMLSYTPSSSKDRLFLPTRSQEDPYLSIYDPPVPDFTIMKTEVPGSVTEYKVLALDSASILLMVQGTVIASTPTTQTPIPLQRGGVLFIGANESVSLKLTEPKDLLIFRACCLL
Kind of assay: MPI enzyme activity inhibition – biochemical, fluorescence intensity, coupled assay, primary screen (AID 1209).

For assay [4], the system named is INS1. Kind of assay: INS-1E survival protection against cytokine death – cell-based, luminescence, retest, dose response (AID 449756).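 Note: cell death triggered by IL-1 beta plus TNF-alpha plus IFN-gamma mixture; protective hits raise ATP signal compared with cytokine alone wells.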 It is filed as functional. To be noted: Rattus norvegicus.
Assay [5] has as its system Streptococcus sp. 'group A'. Kind of assay: Streptococcus pyogenes SK(-)GAS viability under kanamycin – luminescence, BacTiterGlo, confirmation, counter-screen for streptokinase expression inhibitor project, dose response (AID 1900). It is filed as functional, organism-based.
Assay [6] has as its system BJ. Description: BJ-TERT-LT-ST fibroblast viability loss – cell-based, RAS-independent, luminescence, dose response (AID 1935).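 Note: BJ fibroblasts immortalized with TERT plus LT and ST oncogenes.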 To be noted: Homo sapiens. It counts as functional.
The nature of assay [7]: DRD fibroblast viability loss – cell-based, non-viral oncogenic, luminescence, dose response (AID 1934). It counts as functional. To be noted: Homo sapiens.
The target of assay [8] is Keap1/Nrf2 (Homo sapiens, UniProt Q14145). Description: disruptors of Keap1 binding to Nrf2 peptide – biochemical, fluorescence polarization, cherry-picked samples, dose response (AID 588683).
For assay [9], the system named is BJ. Description: cells. To be noted: Homo sapiens. It is filed as functional, cell-based.
Assay [10] relates to BJ. Description: BJ-TERT fibroblast viability loss – cell-based, RAS-independent, luminescence, dose response (AID 1933). The settings on record: Homo sapiens. It is filed as functional.
Assay [11] in a line: NIH3T3 cell viability loss – ATP luminescence, mouse fibroblasts, counter-screen, dose response (AID 2010).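 Note: cells exposed to compound for about 90 hours before reading.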 It counts as functional, cell-based.
Assay [12] addresses Kappa-type opioid receptor (Homo sapiens, UniProt P41145). It is filed as functional.
The target of assay [13] is Transitional endoplasmic reticulum ATPase (Homo sapiens, UniProt P55072). Kind of assay: p97 ATPase inhibitors, dose response, biochemical (AID 1534).
Assay [14] addresses Transitional endoplasmic reticulum ATPase (Homo sapiens, UniProt P55072, C522A). Kind of assay: C522A mutant p97 ATPase inhibitors, dose response, counter-screen for p97 inhibitor project, biochemical, luminescence (AID 1544).
Assay [15] has as its target T2, Sentrin-specific protease 7 (Homo sapiens, UniProt Q9BQF6).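 Note: Luminescence-based dose-response confirmation of ultra-high-throughput screening hits, measuring inhibition of SENP7.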
T2 sequence (Q9BQF6 whole entry): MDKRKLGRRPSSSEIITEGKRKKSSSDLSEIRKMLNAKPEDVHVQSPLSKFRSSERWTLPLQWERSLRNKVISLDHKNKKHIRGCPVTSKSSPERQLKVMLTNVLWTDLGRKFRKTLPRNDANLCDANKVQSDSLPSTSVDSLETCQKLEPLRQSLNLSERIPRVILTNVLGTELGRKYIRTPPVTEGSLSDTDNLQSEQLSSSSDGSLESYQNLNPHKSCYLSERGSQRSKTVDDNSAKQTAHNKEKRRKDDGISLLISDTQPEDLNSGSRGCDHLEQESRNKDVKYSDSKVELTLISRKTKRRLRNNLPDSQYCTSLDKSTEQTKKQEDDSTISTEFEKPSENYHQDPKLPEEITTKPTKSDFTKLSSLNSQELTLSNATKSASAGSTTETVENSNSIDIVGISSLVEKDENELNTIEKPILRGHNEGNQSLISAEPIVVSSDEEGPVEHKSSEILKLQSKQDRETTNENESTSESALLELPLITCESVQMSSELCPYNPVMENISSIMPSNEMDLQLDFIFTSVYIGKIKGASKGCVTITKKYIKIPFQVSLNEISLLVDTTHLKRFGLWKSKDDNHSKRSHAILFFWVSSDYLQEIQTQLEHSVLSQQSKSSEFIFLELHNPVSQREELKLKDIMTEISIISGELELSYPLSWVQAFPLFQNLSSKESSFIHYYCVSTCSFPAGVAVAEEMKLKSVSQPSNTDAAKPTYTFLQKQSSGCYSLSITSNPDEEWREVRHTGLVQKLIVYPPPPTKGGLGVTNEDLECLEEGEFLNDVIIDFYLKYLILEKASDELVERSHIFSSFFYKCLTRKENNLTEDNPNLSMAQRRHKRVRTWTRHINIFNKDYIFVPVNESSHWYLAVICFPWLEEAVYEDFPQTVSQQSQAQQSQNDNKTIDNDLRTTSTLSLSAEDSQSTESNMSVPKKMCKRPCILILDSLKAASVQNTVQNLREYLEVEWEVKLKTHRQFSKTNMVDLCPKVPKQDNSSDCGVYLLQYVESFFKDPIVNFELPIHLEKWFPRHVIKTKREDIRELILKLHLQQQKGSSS
It counts as functional.

Assay [16] deals with T3, Sentrin-specific protease 8 (Homo sapiens, UniProt Q96LD8).
T3 sequence (Q96LD8 whole entry): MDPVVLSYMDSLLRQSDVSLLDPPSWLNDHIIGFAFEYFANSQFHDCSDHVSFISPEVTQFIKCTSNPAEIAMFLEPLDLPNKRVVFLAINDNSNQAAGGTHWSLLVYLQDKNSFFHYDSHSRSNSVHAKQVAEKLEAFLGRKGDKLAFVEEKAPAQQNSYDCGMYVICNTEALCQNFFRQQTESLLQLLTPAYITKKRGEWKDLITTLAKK
It is filed as functional.

The target of assay [17] is T4, Caspase-6 (Homo sapiens, UniProt P55212).
T4 sequence (P55212 whole entry): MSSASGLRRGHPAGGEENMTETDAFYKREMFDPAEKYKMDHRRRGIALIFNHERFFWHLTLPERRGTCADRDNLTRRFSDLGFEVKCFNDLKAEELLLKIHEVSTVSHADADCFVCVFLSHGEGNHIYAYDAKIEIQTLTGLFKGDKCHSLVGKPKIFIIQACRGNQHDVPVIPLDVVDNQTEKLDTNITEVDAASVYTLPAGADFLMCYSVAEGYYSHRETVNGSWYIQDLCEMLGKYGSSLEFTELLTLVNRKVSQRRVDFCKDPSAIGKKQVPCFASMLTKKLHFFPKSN
Kind of assay: inhibition of CASP6 peptide cleavage – biochemical, VEID-R110 fluorescence, cherry-pick, dose response (AID 720632).

Assay [18] is described as follows: off-target signal loss in HeLa-CEM21 co-culture – HeLa F-luc CTL cells, cherry-picked, counter-screen for HIV-1 Env fusion inhibitor project, dose response (AID 652040).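 Note: potency for signal decrease marking cytotoxic or nonspecific inhibition.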 It is filed as functional, cell-based.

SMILES strings stand for the structures. Active and inactive are the calls of the source.

Sequence of Transitional endoplasmic reticulum ATPase (Homo sapiens, UniProt P55072) (P55072 whole entry): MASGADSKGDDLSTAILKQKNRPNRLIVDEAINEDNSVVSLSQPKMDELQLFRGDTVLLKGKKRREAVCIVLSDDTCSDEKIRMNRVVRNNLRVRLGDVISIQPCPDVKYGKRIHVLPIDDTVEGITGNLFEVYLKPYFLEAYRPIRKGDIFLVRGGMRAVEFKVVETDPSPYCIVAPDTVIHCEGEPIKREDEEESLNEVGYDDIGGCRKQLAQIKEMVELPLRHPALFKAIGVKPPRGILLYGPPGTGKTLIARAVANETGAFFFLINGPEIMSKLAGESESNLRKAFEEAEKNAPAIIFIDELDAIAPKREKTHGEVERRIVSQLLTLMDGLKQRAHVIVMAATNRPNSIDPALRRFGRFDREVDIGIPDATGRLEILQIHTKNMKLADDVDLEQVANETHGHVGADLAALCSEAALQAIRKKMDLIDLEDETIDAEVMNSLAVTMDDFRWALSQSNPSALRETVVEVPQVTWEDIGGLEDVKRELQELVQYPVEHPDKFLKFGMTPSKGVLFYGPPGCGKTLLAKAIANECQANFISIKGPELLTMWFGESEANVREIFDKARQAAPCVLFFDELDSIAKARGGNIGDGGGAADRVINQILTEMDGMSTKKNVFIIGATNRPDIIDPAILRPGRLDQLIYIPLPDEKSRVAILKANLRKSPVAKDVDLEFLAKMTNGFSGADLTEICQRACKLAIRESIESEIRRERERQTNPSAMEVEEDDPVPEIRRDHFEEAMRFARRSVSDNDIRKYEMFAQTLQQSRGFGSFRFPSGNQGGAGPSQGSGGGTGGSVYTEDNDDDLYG
Sequence of Transitional endoplasmic reticulum ATPase (Homo sapiens, UniProt P55072, C522A) (P55072 2-806 C522A limits assumed): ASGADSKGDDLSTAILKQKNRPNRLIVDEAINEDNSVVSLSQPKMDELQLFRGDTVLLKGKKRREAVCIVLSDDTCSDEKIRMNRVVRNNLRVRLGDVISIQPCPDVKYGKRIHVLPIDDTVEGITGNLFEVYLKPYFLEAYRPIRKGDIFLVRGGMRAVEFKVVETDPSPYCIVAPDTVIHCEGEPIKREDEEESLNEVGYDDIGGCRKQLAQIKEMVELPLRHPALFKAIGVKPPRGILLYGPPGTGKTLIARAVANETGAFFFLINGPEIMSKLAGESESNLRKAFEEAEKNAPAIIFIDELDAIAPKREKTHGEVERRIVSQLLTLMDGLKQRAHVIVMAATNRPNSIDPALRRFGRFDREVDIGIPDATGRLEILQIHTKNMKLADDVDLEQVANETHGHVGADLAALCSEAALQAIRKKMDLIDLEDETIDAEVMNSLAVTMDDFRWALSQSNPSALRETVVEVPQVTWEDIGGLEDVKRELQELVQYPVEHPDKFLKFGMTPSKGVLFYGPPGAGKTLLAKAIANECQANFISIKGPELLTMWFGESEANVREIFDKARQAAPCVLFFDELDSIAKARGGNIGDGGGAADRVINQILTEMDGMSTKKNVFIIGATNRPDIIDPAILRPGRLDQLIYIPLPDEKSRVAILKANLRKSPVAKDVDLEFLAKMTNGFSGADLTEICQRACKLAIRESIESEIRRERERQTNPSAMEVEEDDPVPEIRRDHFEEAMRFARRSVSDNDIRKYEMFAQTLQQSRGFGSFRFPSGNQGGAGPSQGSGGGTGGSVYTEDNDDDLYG
Sequence of Kappa-type opioid receptor (P41145 whole entry): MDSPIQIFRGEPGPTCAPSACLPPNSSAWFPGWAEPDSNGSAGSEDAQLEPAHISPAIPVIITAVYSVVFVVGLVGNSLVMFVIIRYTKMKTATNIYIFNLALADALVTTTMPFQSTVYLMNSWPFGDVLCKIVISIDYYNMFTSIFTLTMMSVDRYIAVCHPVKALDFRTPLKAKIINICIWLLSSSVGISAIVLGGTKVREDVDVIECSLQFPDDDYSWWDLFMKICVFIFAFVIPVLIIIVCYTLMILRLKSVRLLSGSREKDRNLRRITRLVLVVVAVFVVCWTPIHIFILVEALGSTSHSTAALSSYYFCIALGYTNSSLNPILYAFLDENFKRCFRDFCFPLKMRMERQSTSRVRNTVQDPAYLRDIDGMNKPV
Sequence of Keap1/Nrf2 (Q16236 whole entry): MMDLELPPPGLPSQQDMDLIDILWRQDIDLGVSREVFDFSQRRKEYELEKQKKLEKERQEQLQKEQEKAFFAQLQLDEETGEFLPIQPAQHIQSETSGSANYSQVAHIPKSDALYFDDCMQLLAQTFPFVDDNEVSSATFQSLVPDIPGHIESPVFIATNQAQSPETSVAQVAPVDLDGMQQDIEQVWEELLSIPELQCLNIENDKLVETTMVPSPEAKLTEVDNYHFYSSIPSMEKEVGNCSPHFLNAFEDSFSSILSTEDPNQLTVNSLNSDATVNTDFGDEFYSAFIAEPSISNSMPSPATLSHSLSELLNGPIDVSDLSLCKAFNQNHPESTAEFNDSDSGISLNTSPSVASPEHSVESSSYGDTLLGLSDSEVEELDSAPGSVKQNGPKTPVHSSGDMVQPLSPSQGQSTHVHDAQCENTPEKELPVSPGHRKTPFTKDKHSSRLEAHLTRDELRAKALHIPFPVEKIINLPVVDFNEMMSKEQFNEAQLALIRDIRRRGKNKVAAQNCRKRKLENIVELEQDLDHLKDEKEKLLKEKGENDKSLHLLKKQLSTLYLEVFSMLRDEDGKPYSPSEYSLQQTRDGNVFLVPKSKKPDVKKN
Sequence of Keap1/Nrf2 (Q14145 whole entry): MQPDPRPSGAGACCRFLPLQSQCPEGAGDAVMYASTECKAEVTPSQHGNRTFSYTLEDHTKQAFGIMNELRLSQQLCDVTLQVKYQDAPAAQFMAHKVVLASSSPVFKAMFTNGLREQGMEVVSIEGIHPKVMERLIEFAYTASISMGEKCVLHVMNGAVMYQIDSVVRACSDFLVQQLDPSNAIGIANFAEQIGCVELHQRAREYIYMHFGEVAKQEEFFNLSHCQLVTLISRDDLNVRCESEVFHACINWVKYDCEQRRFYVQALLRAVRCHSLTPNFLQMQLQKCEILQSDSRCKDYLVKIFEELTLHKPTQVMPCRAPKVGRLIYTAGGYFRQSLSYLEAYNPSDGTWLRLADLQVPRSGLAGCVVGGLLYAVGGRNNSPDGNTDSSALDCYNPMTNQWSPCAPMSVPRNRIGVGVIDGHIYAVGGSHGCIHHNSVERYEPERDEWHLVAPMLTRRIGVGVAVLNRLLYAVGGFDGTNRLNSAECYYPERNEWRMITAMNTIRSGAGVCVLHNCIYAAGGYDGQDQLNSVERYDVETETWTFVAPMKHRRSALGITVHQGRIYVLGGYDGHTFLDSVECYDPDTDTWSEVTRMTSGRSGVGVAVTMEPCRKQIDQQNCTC

A word on the AC50: it is the midpoint of the concentration-response curve, whichever way the signal moves. With `O=C1c2cc(F)ccc2-n2c1nc1ccccc1c2=O`, the AC50 in assay [1] is 3.73 µM (active).
As usually defined, the EC50 is the concentration needed to bring the measured effect to its halfway point. One may read the IC50 as the point on the concentration scale where inhibition reaches its midpoint. As to `CCOC(=O)C1=C(c2ccc(OC)cc2)C(=O)c2ccccc2C1=O`, the EC50 in [2] is 6.2 µM (active); in [5], 1.51 µM (active). For the same compound, the half-maximal inhibitory concentration (IC50) in assay [3] is 42.4 µM (active). The AC50 in assay [4] was 2.2 µM (active).
On to `COCCCNC(=O)c1ccc2c3c(onc13)-c1ccccc1C2=O`, for which the EC50 is 7.47 µM (active) in [6], 8.59 µM (active) in [7], > 150 µM (not active) in assay [9] and 8.03 µM (inconclusive) in assay [10]. Besides, in [8], the concentration at half-maximal activity (AC50) was 1.73 µM (active).
Take `O=C1C=C(N(CCO)Cc2ccccc2)c2ccccc2C1=O`: the EC50 in assay [11] was 5.31 µM (active).
Regarding `CCC(=O)OCCNc1cc(Sc2nccn2C)c2nonc2c1[N+](=O)[O-]`, in [12], it took 22.7 µM to reach half-maximal inhibition (IC50). Besides, the 50% effective concentration (EC50) in assay [11] is 3.62 µM (active).
As for `CCCCn1c(NC(=O)c2ccccc2Cl)c(C#N)c2nc3ccccc3nc21`, the 50% inhibitory concentration (IC50) in [13] was > 50 µM (not active); in assay [14], > 50 µM (not active); in assay [15] it was 2.96 µM (active); in assay [16], 1.99 µM (active). Moreover, the half-maximal activity concentration (AC50) in assay [17] is 14.1 µM (active).
As for `CCc1ccc(OCC(=O)N/N=C2\CC(=O)c3ccccc32)cc1`, the values for the IC50 in [15] and in [16] were > 100 µM (inactive) and 8.49 µM (active), respectively.
As to `O=C1C(=O)c2ccccc2-c2ccccc21` [9,10-PHENANTHRENEQUINONE], the IC50 in assay [13] and in [14] was > 50 µM (not active) each time. Further, the EC50 in [6] was 1.63 µM (inconclusive); in [2], 2.3 µM (active); in assay [7], 4.95 µM (inconclusive); in assay [5], 1.33 µM (active); in assay [9] it was 5.99 µM (inconclusive); in assay [10], 1.96 µM (active). In addition, the results for the AC50 in assay [4] and in assay [18] were 1.01 µM (active) and 3.04 µM (active), respectively.
